Experimental data as given in US12624039B2, “BTK inhibitors” (DIZAL (JIANGSU) PHARMACEUTICAL CO., LTD., priority 2020, dated 2026).
Read-outs that look alike come from different tables or passages of the source.

Experiments:
[1] = In vitro plasma and brain binding assay (free fractions); type: in vitro ADME, rat
Procedure: (§1) A Short oral absorption (SOA) model is an in-vivo screening model to identify brain penetration of a compound. To evaluate the potential of a compound to cross the blood-brain barrier in rats, total brain-to-plasma ratio (Kp,brain) was measured AUCbrain/AUCplasma. CSF-to-plasma ratio (Kp,CSF) was determined by either AUCCSF/AUCplasma or the average of CSF-to-plasma ratios at available time points after oral administration, respectively. Free fractions of in biological matrix were determined by in vitro plasma and brain binding assay in a separate study. Kp,uu,brain and Kp,uu,CSF were calculated by the following equations: (1) Kp,uu,brain=Kp, brain×fu,brain/fu,plasma; (2) Kp,uu,CSF=Kp,CSF/fu,plasma.

[2] = In vitro human hepatocytes clearance assay; type: in vitro ADME
Procedure: (§2) In Vitro Rat/Human Hepatocytes Clearance Assay
(§3) Rat hepatocytes in male gender and human hepatocytes in mixed gender were obtained from commercial vendors (e.g., BioreclamationIVT) and stored at −150° C. prior to use. 10 mM stock solutions of tested compounds were prepared in DMSO. Thawing medium and supplement incubation medium (serum-free) were placed in a 37° C. water bath for at least 15 minutes prior to use. Stock solutions were diluted to 100 μM by combining 198 μL acetonitrile and 2 μL of 10 mM stock solution.
(§4) Vials of cryopreserved hepatocytes were removed from storage, ensured that vials remain at cryogenic temperatures. The vials were thawed in a 37° C. water bath with gently shaking. Vials were kept in a water bath until all ice crystals had dissolved and were no longer visible. Vials were sprayed with 70% ethanol before being transferred to a biosafety cabinet. And then the contents were poured into the 50 mL thawing medium conical tube. Vials were centrifuged at 100 g for 10 minutes at room temperature. Thawing medium was aspirated and hepatocytes were resuspended with serum-free incubation medium to yield ^˜1.5×10^6 cells/mL.
(§5) Cell viability and density were counted using a Trypan Blue exclusion, and then cells were diluted with serum-free incubation medium to a working cell density of 1×10^6 viable cells/ml. A portion of the hepatocytes at 1×10^6 viable cells/mL was boiled for 10 min prior to adding to the plate as negative control to eliminate the enzymatic activity so that little or no substrate turnover should be observed. The inactivated hepatocytes were used to prepare negative samples, which were used to exclude the misleading factor that resulted from instability of chemical itself.
(§6) Aliquots of 247.5 μL hepatocytes were dispensed into each well of a 96-well non-coated plate. The plate was placed in the incubator on an orbital shaker for approximately 10 minutes. Aliquots of 2.5 μL of the 100 μM test compounds were added into respective wells of the non-coated 96-well plate to start the reaction. This assay was performed in duplicate. The plate was incubated in the incubator on an orbital shaker for the designed time points. 20 μL of contents were transferred and mixed with 6 volumes (120 μL) of cold acetonitrile with internal standard to terminate the reaction at time points of 5, 15, 30, 45, 60, 80 and 100 minutes. Samples were centrifuges for 20 minutes at 4000 g and aliquots of 100 μl of the supernatants were used for LC-MS/MS analysis for measurement of test compounds.
(§7) In vitro hepatocyte clearance was estimated based on determination of elimination half-life (T1/2) of compounds disappearance from their initial concentrations. Peak area ratios of each compound (test or control) to IS was calculated. Ln (% Control) versus Incubation Time (min) curve was plotted, and the slope of a linear fitting line was calculated. Drug elimination rate constant k (min-1), T1/2 (min), and in vitro intrinsic clearance CLint (μL/min/E6) was calculated according to the following equations: k=−slope T1/2=0.693/k CLint=k/Chep • Where Chep (cells×μL-1) is the cell concentration in the incubation system. Procedure for Log D Determination

[3] = target: T1, BTK-C481S in HEK293-BTK(C481S) cells (Homo sapiens, UniProt Q06187, C481S); test: HEK293-BTK(C481S) p-BTK ELISA; type: cell-based; details: 1.5 hour
T1 construct: Full-length cDNAs of BTK containing C481S mutation was generated by mutagenesis; expressed in transfected cells
Procedure: (§8) The mutated BTK cDNAs were confirmed by sequencing. […] The transfected cells were selected in 2 μg/mL of puromycin. Stable polyclonal cell lines were confirmed by WB and used for further study. […] All the cells were maintained in a humidified incubator at 37° C. with 5% CO2.
(§9) The test compounds were added to the cells and cells were incubated for 1.5 hour at 37° C., 5% CO2. […] The plate was read on a Multiscan Spectrum reader set to 450 nm wavelengths. The data were processed in Graph Pad Prism software.

[4] = target: T2, BTK(WT) in HEK293-BTK(WT) cells (Homo sapiens, UniProt Q06187); test: HEK293-BTK(WT) p-BTK ELISA; type: cell-based; details: 1.5 hour
T2 construct: Full-length cDNAs of BTK containing C481S mutation was generated by mutagenesis; expressed in transfected cells
Procedure: as §8, §9

TMD-8 cells = test: TMD-8 anti-proliferation assay; type: cell-based
Procedure: TMD-8 Anti-Proliferation Assay
TMD-8 cells were prepared in RPMI1640 media containing 10% foetal bovine, and plated in 384 well plates at 1500 cells per well, The cells were incubated overnight at 37° C., 5% CO2. After incubation, compounds with different concentration were added to the assay plates and incubate cells for a further 72 hours at 37° C., 5% CO2. Following 72 hours incubation, 15 μl of CellTiter 96® AQueous One Solution Reagent was added to each well and the plates incubated at room temperature for 30 mins. Cell viability was determined using the CellTiter-Glo (Promega, USA). The CellTiter-Glo assay was performed according to the manufacturer's instructions, and luminescence was determined in a multi-label reader (Envision, PerkinElmer, USA). The data were processed in XLfit software.

[5] = In vitro rat hepatocytes clearance assay; type: in vitro ADME
Procedure: as §2, §3, §4, §5, §6, §7

[6] = target: T3, Recombinant BTK wild type (BTK WT) (Homo sapiens, UniProt Q06187); test: BTK WT HTRF kinase assay; type: biochemical; details: 30 min pre-incubation, 120 min reaction
T3 construct: purchased Thermo fisher
Procedure: Recombinant BTK wild type (BTK WT) was purchased from Thermo fisher.
In brief, recombinant kinases were pre-incubated in the presence or absence of compound at room temperature for 30 minutes. The reaction was initiated by the addition of the ATP and substrate peptide which could be phosphorylated by kinases in the reaction. After 120 minutes incubation, the reaction was stopped by the addition of the detection reagent mix containing EDTA.

[7] = Short oral absorption (SOA) assay in rats, brain penetration; type: in vivo; details: rat; for Kp: brain, AUCbrain/AUCplasma
Procedure: Short Oral Absorption (SOA) Assay in Rats.
as §1

[8] = rat brain free fraction, read-out: Rat fu, br (%)
[9] = rat plasma free fraction, read-out: Rat fu, pl (%)
[10] = Kp,CSF/fu,plasma, read-out: Kp, uu CSF
[11] = Kp,brain×fu,brain/fu,plasma, read-out: Kp, uu brain

T1 sequence (Q06187 whole entry C481S): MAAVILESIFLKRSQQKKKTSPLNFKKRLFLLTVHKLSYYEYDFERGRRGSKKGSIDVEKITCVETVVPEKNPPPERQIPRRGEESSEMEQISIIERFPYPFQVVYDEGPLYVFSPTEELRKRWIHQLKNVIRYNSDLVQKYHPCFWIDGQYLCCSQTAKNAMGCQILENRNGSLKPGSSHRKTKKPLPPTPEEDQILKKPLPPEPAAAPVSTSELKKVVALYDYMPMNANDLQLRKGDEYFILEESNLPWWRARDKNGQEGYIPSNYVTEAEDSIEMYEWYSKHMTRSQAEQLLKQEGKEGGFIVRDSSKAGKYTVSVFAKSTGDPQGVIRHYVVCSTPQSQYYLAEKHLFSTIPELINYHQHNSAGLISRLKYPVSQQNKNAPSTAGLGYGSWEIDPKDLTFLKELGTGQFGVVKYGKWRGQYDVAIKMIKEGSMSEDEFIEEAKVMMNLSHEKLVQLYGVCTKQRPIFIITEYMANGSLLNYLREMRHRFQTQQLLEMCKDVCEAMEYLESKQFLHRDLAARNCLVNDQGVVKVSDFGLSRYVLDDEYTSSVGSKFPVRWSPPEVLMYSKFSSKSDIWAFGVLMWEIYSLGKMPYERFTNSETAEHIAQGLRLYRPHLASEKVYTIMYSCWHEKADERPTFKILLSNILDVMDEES
T3 sequence (Q06187 whole entry): as the sequence (Q06187 whole entry C481S) above, with S481C counted along it

Structure (SMILES) | fraction unbound [1, 8] | fraction unbound [1, 9] | Human Hep Clint [2] [μL/min/10∧6 cells] | IC50 [3] [nM] | IC50 [4] [nM] | IC50 (TMD-8 cells; 72 hours) [nM] | Rat Hep Clint [5] [μL/min/10∧6 cells] | IC50 [6] [nM] | Kp [7] | Kp uu [7, 10] | Kp uu [7, 11] | IC50 (TMD-8 cells; Homo sapiens, TMD8, 72 h) [nM]
Nc1nccn2c(C3CCC(CO)OC3)nc(-c3ccc(Oc4ccccc4)cc3F)c12 (single isomer, unassigned) [Compound 2, Trans-(5-(8-amino-1-(2-fluoro-4-phenoxyphenyl)imidazo[1,5-a]pyrazin-3-yl)tetrahydro-2H-pyran-2-yl)methanol] | 0.033 | 0.038 | 4.6 | 70.6 | 27.3 | 22.7 | 6.1 | 0.6 | 1.35 | 0.86 | 1.19 | 
Nc1nccn2c(C3CCC(CO)OC3)nc(-c3ccc(Oc4ccccc4)cc3F)c12 (single isomer, unassigned) [Compound 3, Trans-(5-(8-amino-1-(2-fluoro-4-phenoxyphenyl)imidazo[1,5-a]pyrazin-3-yl)tetrahydro-2H-pyran-2-yl)methanol] |  |  | 12.9 |  |  | 106 | 8.8 | 6.29 |  |  |  | 
Nc1nccn2c(C3CCC(CO)OC3)nc(-c3ccc(Oc4ccccc4)c(F)c3F)c12 (single isomer, unassigned) [Compound 4, (5-(8-amino-1-(2,3-difluoro-4-phenoxyphenyl)imidazo[1,5-a]pyrazin-3-yl)tetrahydro-2H-pyran-2-yl)methanol] |  |  | 5.6 | 84.2 | 18.8 | 16.2 | 7.2 | 0.49 |  |  |  | 
Nc1nccn2c(C3CCC(CO)OC3)nc(-c3ccc(Oc4ccccc4)c(F)c3F)c12 (single isomer, unassigned) [Compound 5, (5-(8-amino-1-(2,3-difluoro-4-phenoxyphenyl)imidazo[1,5-a]pyrazin-3-yl)tetrahydro-2H-pyran-2-yl)methanol] |  |  | 9.0 |  |  | 102 | 9.0 | 4.92 |  |  |  | 
Nc1nccn2c(C3CCC(CO)OC3)nc(-c3ccc(Oc4cccc(F)c4F)cc3)c12 (single isomer, unassigned) [Compound 6, (5-(8-amino-1-(4-(2,3-difluorophenoxy)phenyl)imidazo[1,5-a]pyrazin-3-yl)tetrahydro-2H-pyran-2-yl)methanol] |  |  | 2.1 | 75.4 | 33.4 | 27.4 | 8.2 | 0.62 |  |  |  | 
Nc1nccn2c(C3CCC(CO)OC3)nc(-c3ccc(Oc4cccc(F)c4F)cc3)c12 (single isomer, unassigned) [Compound 7, (5-(8-amino-1-(4-(2,3-difluorophenoxy)phenyl)imidazo[1,5-a]pyrazin-3-yl)tetrahydro-2H-pyran-2-yl)methanol] |  |  | 3.3 |  |  | 219 | 4.9 | 1.59 |  |  |  | 
Nc1ncnn2c(C3CCC(CO)OC3)nc(-c3ccc(Oc4ccccc4)cc3F)c12 (single isomer, unassigned) [Compound 8, (5-(4-amino-5-(2-fluoro-4-phenoxyphenyl)imidazo[5,1-f][1,2,4]triazin-7-yl)tetrahydro-2H-pyran-2-yl)methanol] |  |  | 6.1 |  |  | 77 | 48.5 | 3.45 |  |  |  | 
Nc1ncnn2c(C3CCC(CO)OC3)nc(-c3ccc(Oc4ccccc4)cc3F)c12 (single isomer, unassigned) [Compound 9, (5-(4-amino-5-(2-fluoro-4-phenoxyphenyl)imidazo[1,5-a][1,2,4]triazin-7-yl)tetrahydro-2H-pyran-2-yl)methanol] |  |  | 5.9 |  |  | 160 | 27.2 | 8.64 |  |  |  | 
Nc1ncnn2c(C3CCC(CO)OC3)nc(-c3ccc(Oc4ccccc4)cc3F)c12 (single isomer, unassigned) [Compound 11, Trans-(5-(4-amino-5-(2-fluoro-4-phenoxyphenyl)imidazo[5,1-f][1,2,4]triazin-7-yl)tetrahydro-2H-pyran-2-yl)methanol] |  |  | 3.6 |  |  | 70.9 | 11.7 | 4.51 |  |  |  | 
Nc1nccn2c(C3CCC(CO)OC3)nc(-c3ccc(Oc4ccccc4)cc3)c12 (stereo not drawn) [Compound 1, (5-(8-amino-1-(4-phenoxyphenyl)imidazo[1,5-a]pyrazin-3-yl)tetrahydro-2H-pyran-2-yl)methanol] |  |  | 28.9 |  |  |  | 12.4 | 1.16 |  |  |  | 24.2
Nc1ncnn2c(C3CCC(CO)OC3)nc(-c3ccc(Oc4ccccc4)c(F)c3F)c12 (stereo not drawn) [Compound 12, (5-(4-amino-5-(2,3-difluoro-4-phenoxyphenyl)imidazo[1,5-f][1,2,4]triazin-7-yl)tetrahydro-2H-pyran-2-yl)methanol] |  |  | 2.0 | 46.8 | 17.6 |  | 46.8 | 0.27 |  |  |  | 
Nc1ncnn2c(C3CCC(CO)OC3)nc(-c3ccc(Oc4cccc(F)c4F)cc3)c12 (stereo not drawn) [Compound 14, (5-(4-amino-5-(4-(2,3-difluorophenoxy)phenyl)imidazo[5,1-f][1,2,4]triazin-7-yl)tetrahydro-2H-pyran-2-yl)methanol] | 0.015 | 0.02 | 2.5 | 36.3 | 16 |  | 9.48 | 0.7 | 0.32 | 0.59 | 0.23 | 
